Conditions: Liquid; for mass density: Vibrating tube method; for thermal conductivity: Hot wire method

CCCC[n+]1ccccc1.F[B-](F)(F)F [1-butylpyridinium tetrafluoroborate]
Conditions | mass density, 293.15 K [kg/m3] | mass density, 303.15 K [kg/m3] | mass density, 313.15 K [kg/m3] | mass density, 323.15 K [kg/m3] | mass density, 333.15 K [kg/m3] | mass density, 343.15 K [kg/m3] | mass density, 353.15 K [kg/m3] | thermal conductivity, 294.2 K [W/m/K] | thermal conductivity, 314.3 K [W/m/K] | thermal conductivity, 334.3 K [W/m/K]
100 kPa | 1216.5 | 1209.5 | 1202.6 | 1196 | 1188.9 | 1182 | 1175.4 | 0.171 | 0.17 | 0.169
5000 kPa | 1219 | 1211.9 | 1205.1 | 1198.5 | 1191.4 | 1184.5 | 1177.9 | – | – | –
10000 kPa | 1221.1 | 1214.3 | 1207.6 | 1200.9 | 1193.9 | 1187 | 1180.6 | 0.171 | 0.171 | 0.171
15000 kPa | 1223.4 | 1216.4 | 1209.9 | 1203.2 | 1196.4 | 1189.5 | 1183.3 | – | – | –
20000 kPa | 1225.5 | 1218.7 | 1212 | 1205.5 | 1198.8 | 1191.9 | 1185.8 | 0.173 | 0.173 | 0.172

CCCCCC[n+]1ccccc1.F[B-](F)(F)F [1-hexylpyridinium tetrafluoroborate]
Conditions | mass density, 293.15 K [kg/m3] | mass density, 303.15 K [kg/m3] | mass density, 313.15 K [kg/m3] | mass density, 323.15 K [kg/m3] | mass density, 333.15 K [kg/m3] | mass density, 343.15 K [kg/m3] | mass density, 353.15 K [kg/m3] | thermal conductivity, 294.2 K [W/m/K] | thermal conductivity, 314.3 K [W/m/K] | thermal conductivity, 334.3 K [W/m/K]
100 kPa | 1157 | 1150.3 | 1143.5 | 1137 | 1130 | 1123.4 | 1116.8 | 0.163 | 0.163 | 0.161
5000 kPa | 1159.5 | 1152.9 | 1146.1 | 1139.7 | 1132.7 | 1126 | 1119.5 | – | – | –
10000 kPa | 1161.8 | 1155.3 | 1148.7 | 1142.2 | 1135.2 | 1128.7 | 1122.3 | 0.165 | 0.163 | 0.162
15000 kPa | 1164.1 | 1157.6 | 1151.1 | 1144.5 | 1137.8 | 1131.2 | 1125 | – | – | –
20000 kPa | 1166.5 | 1159.9 | 1153.4 | 1146.9 | 1140.3 | 1133.8 | 1127.6 | 0.166 | 0.164 | 0.163

CCCCCCCC[n+]1ccccc1.F[B-](F)(F)F [1-octylpyridinium tetrafluoroborate]
Conditions | mass density, 293.15 K [kg/m3] | mass density, 303.15 K [kg/m3] | mass density, 313.15 K [kg/m3] | mass density, 323.15 K [kg/m3] | mass density, 333.15 K [kg/m3] | mass density, 343.15 K [kg/m3] | mass density, 353.15 K [kg/m3] | thermal conductivity, 294.2 K [W/m/K] | thermal conductivity, 314.3 K [W/m/K] | thermal conductivity, 334.3 K [W/m/K]
100 kPa | 1111.2 | 1104.4 | 1097.6 | 1091.1 | 1084.4 | 1077.9 | 1071.6 | 0.16 | 0.16 | 0.158
5000 kPa | 1113.8 | 1107.1 | 1100.3 | 1093.9 | 1087.1 | 1080.7 | 1074.4 | – | – | –
10000 kPa | 1116.2 | 1109.6 | 1103 | 1096.6 | 1089.9 | 1083.6 | 1077.3 | 0.163 | 0.161 | 0.159
15000 kPa | 1118.6 | 1112.1 | 1105.4 | 1099 | 1092.6 | 1086.2 | 1080.1 | – | – | –
20000 kPa | 1120.9 | 1114.4 | 1107.8 | 1101.5 | 1095.2 | 1089 | 1083 | 0.165 | 0.164 | 0.161

From the NIST ThermoML archive (doi:10.1016/j.fluid.2012.12.008)
